Patent US12428428B2, “Tricyclic tetrahydroisoquinoline derivative, preparation method therefor and application thereof in medicine” (JIANGSU HENGRUI MEDICINE CO., LTD., priority 2020, dated 2025)
pIC50: −log10 of the molar value.

Biological target: CYP3A4 (Homo sapiens (Human), UniProt P08684)
Assay: Time-dependent inhibition of site of metabolism of midazolam in human liver microsome CYP3A4
Format: in vitro ADME
Conditions: midazolam substrate; for IC50 shift at 30 min: human, human liver microsomes, probe midazolam (3 µM)
Protocol: • 1. Phosphate buffer (20×PBS, purchased from Sangon); • 2. NADPH (ACROS, A2646-71-1); • 3. Human liver microsome (Corning Gentest, Cat No, 452161, Lot No. 9050002, Donor, 36); • 4. ABI QTrap 4000 LC-MS System (AB Sciex); • 5. ZORBAX Extend-C18, 3×50 mm, 3.5 μm (Agilent, USA); • 6. CYP probe substrate (midazolam, TRC, M343000/3 μM) and positive control inhibitor (verapamil, Adamas Reagent Co, Ltd, Cat No. 25904A).
A 100 mM PBS buffer was prepared. A 0.25 mg/mL microsome solution, a 7.5 mM MgCl2 and a 5 mM NADPH solution were prepared using the buffer. A 30 mM stock solution was diluted with DMSO to obtain 30 mM, 10 mM, 3 mM, 1 mM, 0.3 mM, 0.1 mM, 0.03 mM and 0 mM serial solutions I, which were further diluted 200-fold with phosphate buffer (PBS) to obtain serial test solutions II (150, 50, 15, 5, 1.5, 0.5, 0.15 and 0 μM). A midazolam working solution was diluted with PBS to 15 μM.
The serial test solutions prepared above were well mixed by shaking and aliquoted in 20 μL portions into corresponding reaction plates (+NADPH, T0 and −NADPH groups were set). Three parallel tests were set. 40 μL of the liver microsome working solution was added to each 96-well plate. 20 μL of a corresponding substrate solution was added to the T0 plate. 20 μL of NADPH was added to the TO plate and +NADPH group. A timer was started, and the plates were incubated in a water bath at 37° C. After 30 min of incubation, the TO plate was taken out, and the reaction was terminated with 250 μL of an internal standard-containing ACN solution. The +NADPH group was supplemented with 20 μL of the corresponding substrate solution, and the −NADPH group was supplemented with 20 μL of the corresponding substrate solution and […]. A timer was started, and the plates were incubated in a water bath at 37° C. After 30 min of incubation, the plates were taken out, and the reactions were terminated with 250 μL of an internal standard-containing ACN solution. Then the plates were shaken on a shaker at 800 rpm for 10 min and centrifuged at 4000 rpm for 15 min. 100 μL of the supernatant and 80 μL of ultrapure water were well mixed and subjected to LC-MS/MS analysis.
The IC50 values of the drugs for the site of metabolism of midazolam in CYP3A4 were calculated using Graphpad Prism and are shown in Table 7.

[1] = 30 min pre-incubation with NADPH

CYP3A4, sequence (P08684 whole entry): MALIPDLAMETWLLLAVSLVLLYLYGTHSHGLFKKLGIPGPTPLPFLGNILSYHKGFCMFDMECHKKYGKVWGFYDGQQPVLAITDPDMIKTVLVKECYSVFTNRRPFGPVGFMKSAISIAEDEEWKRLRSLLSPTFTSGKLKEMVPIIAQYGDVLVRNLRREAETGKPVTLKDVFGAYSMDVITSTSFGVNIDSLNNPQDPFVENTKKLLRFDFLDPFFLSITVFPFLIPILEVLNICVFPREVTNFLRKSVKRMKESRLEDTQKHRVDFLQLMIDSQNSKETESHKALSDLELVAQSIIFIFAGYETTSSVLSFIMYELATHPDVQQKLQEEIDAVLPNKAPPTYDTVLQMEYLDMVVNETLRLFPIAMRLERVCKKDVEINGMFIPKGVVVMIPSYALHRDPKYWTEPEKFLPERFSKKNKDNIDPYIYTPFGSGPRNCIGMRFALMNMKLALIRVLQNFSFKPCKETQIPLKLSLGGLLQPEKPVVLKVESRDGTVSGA

IC50 shift at 30 min	pIC50 [1]	pIC50 (pre-incubation without NADPH)	SMILES
1	5.61	5.61	C[C@@H]1Cc2cc3c(cc2[C@@H](c2ccc(N[C@H]4CCN(CCCF)C4)cn2)N1CC(F)(F)CO)OCO3 [Example 4, 2,2-Difluoro-3-((5S,7R)-5-(5-(((S)-1-(3-fluoropropyl)pyrrolidin-3-yl)amino)pyridin-2-yl)-7-methyl-7,8-dihydro-[1,3]dioxolo[4,5-g]isoquinolin-6(5H)-yl)propan-1-ol]
0.9	5.04	4.99	[2H]C1([2H])Oc2cc3c(cc2O1)[C@@H](c1ccc(N[C@H]2CCN(CCCF)C2)cn1)N(CC(F)(F)CO)[C@H](C)C3 [Example 12, 2,2-Difluoro-3-((5S,7R)-5-(5-(((S)-1-(3-fluoropropyl)pyrrolidin-3-yl)amino)pyridin-2-yl)-7-methyl-7,8-dihydro-[1,3]dioxolo[4,5-g]isoquinolin-6(5H)-yl-2,2-d2)propan-1-ol]
